Results reported in patent US10696693B2, “Fused imidazole derivatives as TGF-beta inhibitors” (Rigel Pharmaceuticals, Inc., priority 2014, dated 2020).
Read-outs that look alike come from different tables or passages of the source.

What was measured:
[1] = system: GDF8; assay: AlphaScreen SureFire p-SMAD3 (Ser423/425) assay, GDF8-stimulated cells; assay type: cell-based; conditions: Mus musculus
Summary of the method: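 A SureFire AlphaScreen assay measured phosphorylation of endogenous SMAD-3 at Ser423/425 in cell lysates. Cells were treated with three-fold serially diluted compounds in DMSO for about 10 minutes, then stimulated with GDF8. After medium removal, cells were lysed in 1× Lysis Buffer (about 25 μL) with gentle shaking for 5-10 minutes.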

[2] = system: TGF-β; assay: AlphaScreen SureFire p-SMAD3 (Ser423/425) assay, TGF-β-stimulated cells; assay type: cell-based; conditions: Mus musculus
Summary of the method: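 The p-SMAD-3 (Ser423/425) SureFire assay measured phosphorylation of endogenous SMAD-3 in cell lysates. Cells were plated overnight in collagen-coated plates, exposed to three-fold serially diluted compounds for about 10 minutes, then stimulated with TGFβ. Lysates (5 μL) received acceptor bead mix for 2 hours, then donor beads for 1½ hours before AlphaScreen reading.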

[3] = MPC-11, p-SMAD3 (Ser423/425) AlphaScreen in cell lysate, MPC11, GDF8 stimulation, read-out: GDF8: inhibition of GDF8 signaling, GDF pSMAD (MPC11)
[4] = p-SMAD3 (Ser423/425) AlphaScreen in cell lysate, MPC-11, TGF-β stimulation, read-out: TGF-β: inhibition of TGF-β signaling, TGF-β pSMAD (MPC-11)
[5] = MPC-11, read-out: GDF8: inhibition of GDF8 signaling, GDF pSMAD (MPC11), p-SMAD3 (Ser423/425) AlphaScreen in cell lysate, GDF8 stimulation
[6] = MPC-11, read-out: TGF-β: inhibition of TGF-β signaling, TGF-β pSMAD (MPC-11), p-SMAD3 (Ser423/425) AlphaScreen in cell lysate, TGF-β stimulation

Compound	IC50 [1, 3]	IC50 [2, 4]	IC50 [1, 5]	IC50 [2, 6]
CN(C)C(=O)C1CCC2(CC1)Cc1nc(-c3ccc(F)cc3)c(-c3ccc4ncnn4c3)n1C2 (stereo not drawn) [Compound 79, 3′-([1,2,4]triazolo[1,5-a]pyridin-6-yl)-2′-(4-fluorophenyl)-N,N-dimethyl-5′H,7′H-spiro[cyclohexane-1,6′-pyrrolo[1,2-a]imidazole]-4-carboxamide]			> 1000 nM	> 1000 nM
COc1cccc(-c2nc3n(c2-c2ccc4nccnc4c2)CCC3)c1 [Compound 188, 6-(2-(3-methoxyphenyl)-6,7-dihydro-5H-pyrrolo[1,2-a]imidazol-3-yl)quinoxaline]			100 to 1000 nM	100 to 1000 nM
Fc1ccc(-c2nc3n(c2-c2ccc4nccnc4c2)CCC3)cc1 [Compound 178, 6-(2-(4-fluorophenyl)-6,7-dihydro-5H-pyrrolo[1,2-a]imidazol-3-yl)quinoxaline]			100 to 1000 nM	> 1000 nM
Fc1ccc(-c2nc3occn3c2-c2ccc3cn[nH]c3c2)cc1F [Compound 134, 6-(3,4-difluorophenyl)-5-(1H-indazol-6-yl)imidazo[2,1-b]oxazole]	50 to 100 nM	100 to 1000 nM		
Cc1cc(-c2nc3n(c2-c2ccc4ncnn4c2)CCC3)c(F)cc1F [Compound 38, 6-(2-(2,4-difluoro-5-methylphenyl)-6,7-dihydro-5H-pyrrolo[1,2-a]imidazol-3-yl)-[1,2,4]triazolo[1,5-a]pyridine]	< 50 nM	< 50 nM		
Fc1cc(F)c(-c2nc3n(c2-c2ccc4ncnn4c2)CCC3)cc1F [Compound 14, 6-(2-(2,4,5-trifluorophenyl)-6,7-dihydro-5H-pyrrolo[1,2-a]imidazol-3-yl)-[1,2,4]triazolo[1,5-a]pyridine]	< 50 nM	100 to 1000 nM		
Fc1cc(F)c(-c2nc3occn3c2-c2ccc3cn[nH]c3c2)cc1F [Compound 147, 6-(2,4,5-trifluorophenyl)-5-(1H-indazol-6-yl)imidazo[2,1-b]oxazole]	< 50 nM	50 to 100 nM		
Fc1cc(F)c(-c2nc3n(c2-c2cc4cnccc4s2)CCC3)cc1F [Compound 99, 2-(2-(2,4,5-trifluorophenyl)-6,7-dihydro-5H-pyrrolo[1,2-a]imidazol-3-yl)thieno[3,2-c]pyridine]	50 to 100 nM	100 to 1000 nM		
Fc1ccc(-c2nc3occn3c2-c2ccc3ncsc3c2)c(F)c1F [Compound 161, 5-(benzo[d]thiazol-6-yl)-6-(2,3,4-trifluorophenyl)imidazo[2,1-b]oxazole]	50 to 100 nM	100 to 1000 nM		
Clc1cccc(-c2nc3n(c2-c2ccc4[nH]ncc4c2)CCC3)c1 [Compound 189, 5-(2-(3-chlorophenyl)-6,7-dihydro-5H-pyrrolo[1,2-a]imidazol-3-yl)-1H-indazole]			50 to 100 nM	100 to 1000 nM
Fc1ccc(-c2nc3occn3c2-c2ccc3nccnc3c2)cc1F [Compound 136, 6-(3,4-difluorophenyl)-5-(quinoxalin-6-yl)imidazo[2,1-b]oxaole]	100 to 1000 nM	100 to 1000 nM		
Cc1cc(-c2nc3n(c2-c2ccc4[nH]ncc4c2)CCC3)c(Cl)cc1F [Compound 316, 5-(2-(2-chloro-4-fluoro-5-methylphenyl)-6,7-dihydro-5H-pyrrolo[1,2-a]imidazol-3-yl)-1H-indazole]			100 to 1000 nM	100 to 1000 nM
Cc1cccc(-c2nc3occn3c2-c2ccc3[nH]ncc3c2)c1 [Compound 139, 6-(m-tolyl)-5-(1H-indazol-5-yl)imidazo[2,1-b]oxazole]	< 50 nM	< 50 nM		
Cc1cc(-c2nc3n(c2-c2ccc4ncnn4c2)CCC3)cc(C)c1Cl [Compound 24, 6-(2-(4-chloro-3,5-dimethylphenyl)-6,7-dihydro-5H-pyrrolo[1,2-a]imidazol-3-yl)-[1,2,4]triazolo[1,5-a]pyridine]	> 1000 nM	> 1000 nM		
Fc1cc(F)cc(-c2nc3n(c2-c2ccc4cn[nH]c4c2)CCC3)c1 [Compound 231, 6-(2-(3,5-difluorophenyl)-6,7-dihydro-5H-pyrrolo[1,2-a]imidazol-3-yl)-1H-indazole]			100 to 1000 nM	> 1000 nM
Cc1ccc(-c2ccc3ncnn3c2)cc1-c1nc2n(c1-c1ccc3ncnn3c1)CCC2 [Compound 91, 6-(2-(5-([1,2,4]triazolo[1,5-a]pyridin-6-yl)-2-methylphenyl)-6,7-dihydro-5H-pyrrolo[1,2-a]imidazol-3-yl)-[1,2,4]triazolo[1,5-a]pyridine]	> 1000 nM	> 1000 nM		
Fc1cc(F)c(-c2nc3n(c2-c2ccc4ncsc4c2)CCN3)cc1F [Compound 103, 6-(6-(2,4,5-trifluorophenyl)-2,3-dihydro-1H-imidazo[1,2-a]imidazol-5-yl)benzo[d]thiazole]	< 50 nM	< 50 nM		
Fc1cc(F)c(-c2nc3n(c2-c2ccc4ncnn4c2)CCN3)cc1F [Compound 105, 6-(6-(2,4,5-trifluorophenyl)-2,3-dihydro-1H-imidazo[1,2-a]imidazol-5-yl)-[1,2,4]triazolo[1,5-a]pyridine]	< 50 nM	< 50 nM		

Second part, led by results:

IC50 [1, 3]	IC50 [2, 4]	Compound	IC50 [1, 5]	IC50 [2, 6]
100 to 1000 nM	100 to 1000 nM	N#Cc1cnc2ccc(-c3c(-c4ccc(F)c(Cl)c4)nc4n3CCC4)cn12 [Compound 61, 6-(2-(3-chloro-4-fluorophenyl)-6,7-dihydro-5H-pyrrolo[1,2-a]imidazol-3-yl)imidazo[1,2-a]pyridine-3-carbonitrile]		
> 1000 nM	> 1000 nM	Cc1ccccc1-c1nc2n(c1-c1ccc3nccn3c1)CCC2 [Compound 63, 6-(2-(2-methylphenyl)-6,7-dihydro-5H-pyrrolo[1,2-a]imidazol-3-yl)imidazo[1,2-a]pyridine]		
< 50 nM	50 to 100 nM	Fc1cc(F)c(-c2nc3n(c2-c2ccc4ncsc4c2)CCC3)cc1F [Compound 218, 6-(2-(2,4,5-trifluorophenyl)-6,7-dihydro-5H-pyrrolo[1,2-a]imidazol-3-yl)benzo[d]thiazole]		
< 50 nM	< 50 nM	Fc1cc(F)c(F)c(-c2nc3n(c2-c2ccc4ncccc4c2)CCN3)c1 [Compound 110, 6-(6-(2,3,5-trifluorophenyl)-2,3-dihydro-1H-imidazo[1,2-a]imidazol-5-yl)quinoline]		
< 50 nM	< 50 nM	Cc1cccc(-c2nc3occn3c2-c2ccc3ncsc3c2)c1 [Compound 141, 5-(benzo[d]thiazo-6-yl)-6-(m-tolyl)imidazo[2,1-b]oxazole]		
> 1000 nM	> 1000 nM	Cc1ccc(-c2nc3n(c2-c2ccc4[nH]ncc4c2)CCC3)c(F)c1F [Compound 248, 5-(2-(2,3-difluoro-4-methylphenyl)-6,7-dihydro-5H-pyrrolo[1,2-a]imidazol-3-yl)-1H-indazole]		
< 50 nM	100 to 1000 nM	Fc1cc(Cl)c(-c2nc3n(c2-c2ccc4ncsc4c2)CCC3)cc1F [Compound 289, 6-(2-(2-chloro-4,5-difluorophenyl)-6,7-dihydro-5H-pyrrolo[1,2-a]imidazol-3-yl)benzo[d]thiazole]		
> 1000 nM	> 1000 nM	O=C(OCc1ccccc1)N1CCC2Cn3c(nc(-c4ccc(F)cc4)c3-c3ccc4ncnn4c3)C2C1 (stereo not drawn) [Compound 88, benzyl 3-([1,2,4]triazolo[1,5-a]pyridin-6-yl)-2-(4-fluorophenyl)-5,5a,6,7,9,9a-hexahydro-8H-imidazo[1′,2′:1,2]pyrrolo[3,4-c]pyridine-8-carboxylate]		
50 to 100 nM	100 to 1000 nM	FC(F)(F)c1cccc(-c2nc3n(c2-c2ccc4[nH]ncc4c2)CCC3)c1 [Compound 181, 5-(2-(3-(trifluoromethyl)phenyl)-6,7-dihydro-5H-pyrrolo[1,2-a]imidazol-3-yl)-1H-indazole]		
100 to 1000 nM	100 to 1000 nM	Fc1ccc(-c2nc3n(c2-c2ccc4nccnc4c2)CCC3)c(F)c1 [Compound 204, 6-(2-(2,4-difluorophenyl)-6,7-dihydro-5H-pyrrolo[1,2-a]imidazol-3-yl)quinoxaline]		
100 to 1000 nM	100 to 1000 nM	Fc1cc(F)c(-c2nc3n(c2-c2ccc4cn[nH]c4c2)CCC3)cc1F [Compound 217, 6-(2-(2,4,5-trifluorophenyl)-6,7-dihydro-5H-pyrrolo[1,2-a]imidazol-3-yl)-1H-indazole]		
< 50 nM	< 50 nM	Fc1ccc(Cl)cc1-c1nc2n(c1-c1ccc3nccnc3c1)CCC2 [Compound 337, 6-(2-(5-chloro-2-fluoropheny)-6,7-dihydro-5H-pyrrolo[1,2-a]imidazol-3-yl)quinoxaline]		
50 to 100 nM	50 to 100 nM	c1ccc(-c2nc3n(c2-c2ccc4nccnc4c2)CCC3)nc1 [Compound 368, 6-(2-(pyridin-2-yl)-6,7-dihydro-5H-pyrrolo[1,2-a]imidazol-3-yl)quinoxaline]		
< 50 nM	< 50 nM	c1ccc(-c2nc3n(c2-c2ccc4nccn4c2)CCC3)nc1 [Compound 370, 6-(2-(pyridin-2-yl)-6,7-dihydro-5H-pyrrolo[1,2-a]imidazol-3-yl)imidazo[1,2-a]pyridine]		
< 50 nM	50 to 100 nM	Cc1cc(-c2nc3n(c2-c2ccc4ncsc4c2)CCC3)ccc1F [Compound 173, 6-(2-(4-fluoro-3-methylphenyl)-6,7-dihydro-5H-pyrrolo[1,2-a]imidazol-3-yl)benzo[d]thiazole]		
